Measured values taken from US20250042904A1, “COMPOUNDS USED AS SRC INHIBITORS” (WIGEN BIOMEDICINE TECHNOLOGY (SHANGHAI) CO., LTD., priority 2021, published 2025).

Columns and labels:
recombinant protein Src = recombinant protein Src (Homo sapiens (Human), UniProt P12931); assay: In vitro assay for inhibiting Src kinase activity (biotin-labeled TK substrate, Sa-XL 665, Cryptate-labeled antibody); format: biochemical; settings: read-out: IC50, inhibitory activity against recombinant protein Src
Protocol: After the compound serially diluted with DMSO and a Src recombinant protein were incubated at room temperature for 10 min, the reaction was initiated by the addition of a biotin-labeled TK substrate and ATP. After the mixture was left to stand at room temperature for 40 min Sa-XL 665 and a Cryptate-labeled antibody were added. The fluorescence values at 615 nm and 665 nm were measured, and the ratio of 665 nm to 615 nm was calculated. The inhibition percentages and IC50 of the compounds were calculated compared to the DMSO group.

PC3 cells = assay: In vitro anti-proliferative activity against PC3 cells (agarose, 7 days); format: cell-based; settings: Homo sapiens, PC-3, 168 h, 7 days of incubation
Protocol: PC3 cells were mixed with 0.4% agarose at 1200 cells/well, and the mixture was seeded on 0.6% agarose. The compound serially diluted was added, and the cell number was measured after 7 days of incubation. The inhibition percentages and IC50 of the compounds were calculated compared to the DMSO group.

[1] = test system: PC3 subcutaneous xenograft tumor; assay: In vivo pharmacodynamic study, mouse PC3 subcutaneous xenograft tumor model
Protocol: Each nude mouse was grafted subcutaneously with 10×10^6 PC3 cells. When the tumor grew to 100-200 mm^3, the compound was administered orally once a day, and the tumor volume was measured twice a week and at the end of treatment. Tumor growth inhibition rate of the compound was calculated according to the following equation: tumor growth inhibition (TGI)=1−(tumor volume on day 17 in treatment group−tumor volume on day 1 in treatment group)/(tumor volume on day 17 in vehicle control group−tumor volume on day 1 in […]).

[2] = In vivo pharmacokinetic experiment in CD-1 female mice; settings: mouse, plasma, CD-1 mice; for Vd: read-out: Vdss
Protocol: CD-1 female mice aged 7 to 10 weeks were intravenously administered and orally administered at a dose of 2 mg/kg and 10 mg/kg, respectively. The mice were fasted for at least 12 h before the administration and given food 4 h after the administration, and they were given ad libitum access to water during the experiment. On the day of the experiment, animals in the intravenous group were administered the corresponding compound by single injection via the tail vein at an administration volume of 10 mL/kg. Animals in the oral group were administered the corresponding compound by single intragastric injection at an administration volume of 10 mL/kg. The animals were weighed before administration, and the administration volume was calculated according to the body weight. The sample collection time was 0.083 h (injection group), 0.167 h, 0.5 h, 1 h, 2 h, 4 h, 8 h, and 24 h. About 200 μL of whole blood was collected through the submaxillary venous plexus at each time point and used to prepare plasma for concentration determination by high-performance liquid chromatography-tandem mass spectrometry (LC-MS/MS). All animals were euthanized with CO2 anesthesia after the PK samples were collected at the last time point. The plasma concentrations were processed using a non-compartmental model of Phoenix WinNonlin™ version 8.3 (Certara) pharmacokinetic software, and the pharmacokinetic parameters were calculated using a linear-log trapezoidal method.

[3] = Stability experiment in aqueous hydrochloric acid solution pH 2 (HPLC); format: physicochemical; settings: for Initial purity: before acid treatment (baseline); for Purity after stirring in an aqueous hydrochloric acid solution with a pH of 2 for 0.5 h: pH 2, room temperature
Protocol: 5 mg each of compound 59 and compound A was dissolved in an aqueous hydrochloric acid solution (5 mL) with a pH of 2. The mixture was stirred at room temperature. Samples were taken after 0.5 h for HPLC assay using the following assay conditions. The HPLC assay results are shown in Table 7. • Instrument: Agilent 1260 infinity 2 • Column: Xtimate C18 4.6*150 mm,3 um • Temperature:25° C. • Wave length:210 nm/254 nm • phase A: H2O (0.1% TFA) • phase B: MECN (0.1% TFA) • Gradient: […]

recombinant protein Src, sequence (P12931 whole entry, looked up): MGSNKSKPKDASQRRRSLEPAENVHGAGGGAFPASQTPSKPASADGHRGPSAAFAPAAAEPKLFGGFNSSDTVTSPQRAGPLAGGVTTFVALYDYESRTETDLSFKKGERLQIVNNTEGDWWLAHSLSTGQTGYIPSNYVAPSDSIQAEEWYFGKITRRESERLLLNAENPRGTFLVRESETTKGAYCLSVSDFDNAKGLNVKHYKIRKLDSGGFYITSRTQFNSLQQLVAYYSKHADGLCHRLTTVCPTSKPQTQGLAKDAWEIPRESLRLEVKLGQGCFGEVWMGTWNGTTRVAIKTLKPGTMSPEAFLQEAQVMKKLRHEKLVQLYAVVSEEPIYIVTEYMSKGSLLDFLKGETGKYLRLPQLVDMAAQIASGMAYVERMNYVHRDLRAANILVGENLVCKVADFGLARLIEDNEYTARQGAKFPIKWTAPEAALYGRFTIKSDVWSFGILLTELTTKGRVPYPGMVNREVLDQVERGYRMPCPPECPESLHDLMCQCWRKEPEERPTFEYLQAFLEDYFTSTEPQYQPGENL

Structure (SMILES) | IC50 (recombinant protein Src) [nM] | other results
CN(C)C1CCN(CCn2nc(-c3ccc(NC(=O)OC4CC4)c4c3OCO4)c3c(N)ncnc32)CC1 [Compound 2] | ≤ 10 | –
CN(C)C1CCN(CCn2nc(-c3ccc(NC(=O)OC4CCC4)c4c3OCO4)c3c(N)ncnc32)CC1 [Compound 4] | ≤ 10 | –
COc1cc(-c2nn(CCN3CCC(N(C)C)CC3)c3ncnc(N)c23)ccc1NC(=O)OC12CC(C1)C2 [Compound 65] | ≤ 10 | –
CN(C)C1CCN(CCn2nc(-c3ccc(NC(=O)OC4(C)CC4)c4c3OCO4)c3c(N)ncnc32)CC1 [Compound 3] | ≤ 10 | IC50 (PC3 cells): 4.8 nM
COc1cc(-c2nn(CCN3CCC(N(C)C)CC3)c3ncnc(N)c23)ccc1NC(=O)OC1C2CC1C2 (stereo not shown) [Compound 64] | ≤ 10 | –
CN(C)CC1CCN(CCn2nc(-c3ccc(NC(=O)OC(C)(C)C)c4c3OCO4)c3c(N)ncnc32)CC1 [Compound 43] | ≤ 10 | –
CC(C)(C)OC(=O)Nc1ccc(-c2nn(CCN3CCC(N4CCOCC4)CC3)c3ncnc(N)c23)c2c1OCO2 [Compound 57] | ≤ 10 | –
COc1cc(-c2nn(CCN3CCC(N(C)C)CC3)c3ncnc(N)c23)ccc1NC(=O)OC1(C)CC1 [Compound 59] | ≤ 10 | IC50 (PC3 cells): 5.3 nM; TGI (tumor growth inhibition) ([1]; day 17, oral once a day, 50 mg/kg (day 1-day 7), 80 mg/kg (day 8-day 18)): 53%; Tumor volume on day 17 of treatment ([1]; nude mice, oral once a day, 50 mg/kg (day 1-day 7), 80 mg/kg (day 8-day 18)): 318 mm^3; Tumor volume on day 1 of treatment ([1]; nude mice, oral once a day, baseline day 1): 120 mm^3; AUC(0-t) ([2]; oral administration 10 mg/kg): 491 ng·h/mL; Cmax ([2]; oral administration 10 mg/kg): 88.9 ng/mL; bioavailability ([2]; oral administration 10 mg/kg): 32.1%; half-life ([2]; oral administration 10 mg/kg): 5.3 h; AUC(0-t) ([2]; iv, injection 2 mg/kg): 300 ng·h/mL; clearance ([2]; iv, injection 2 mg/kg): 1770 mL/min/kg; half-life ([2]; iv, injection 2 mg/kg): 5.9 h; Vd ([2]; iv, injection 2 mg/kg): 35.6 L/kg; Initial purity [3]: 96.35%; Purity after stirring in an aqueous hydrochloric acid solution with a pH of 2 for 0.5 h [3]: 96.16%
CN(C)C1CCN(CCn2nc(-c3ccc(NC(=O)OC(C)(C)C)c4c3OC(F)(F)O4)c3c(N)ncnc32)CC1 [Compound 51] | ≤ 10 | –
CN(C1CC1)C1CCN(CCn2nc(-c3ccc(NC(=O)OC(C)(C)C)c4c3OCO4)c3c(N)ncnc32)CC1 [Compound 36] | ≤ 10 | –
CN(C)C1CCN(CCCn2nc(-c3ccc(NC(=O)OC(C)(C)C)c4c3OCO4)c3c(N)ncnc32)CC1 [Compound 52] | ≤ 10 | –
CN1CCN(C2CCN(CCn3nc(-c4ccc(NC(=O)OC(C)(C)C)c5c4OCO5)c4c(N)ncnc43)CC2)CC1 [Compound 47] | ≤ 10 | –
CN(C)C1CCN(CCn2nc(-c3ccc(NC(=O)OC4CCCC4)c4c3OCO4)c3c(N)ncnc32)CC1 [Compound 13] | 10 to 50 | –
CN(C)CCN1CCN(CCn2nc(-c3ccc(NC(=O)OC(C)(C)C)c4c3OCO4)c3c(N)ncnc32)CC1 [Compound 42] | ≤ 10 | –
CN(C)C1CCN(CCn2nc(-c3ccc(NC(=O)OC45CC(C4)C5)c4c3OCO4)c3c(N)ncnc32)CC1 [Compound 7] | ≤ 10 | –
COc1cc(-c2nn(CCN3CCC(N(C)C)CC3)c3ncnc(N)c23)ccc1NC(=O)OC1CC(F)(F)C1 [Compound 70] | ≤ 10 | –
CC(C)(C)OC(=O)Nc1ccc(-c2nn(CCN3CCC(C#N)CC3)c3ncnc(N)c23)c2c1OCO2 [Compound 46] | ≤ 10 | –
CC(C)(C)OC(=O)Nc1ccc(-c2nn(CCN3CCN(CCO)CC3)c3ncnc(N)c23)c2c1OCO2 [Compound 41] | ≤ 10 | –
CN(C)C1CCN(CCn2nc(-c3ccc(NC(=O)OC(C)(C)C)c4c3OCO4)c3c(N)ncnc32)CC1 [Compound 1] | ≤ 10 | IC50 (PC3 cells): 3.5 nM
COCCN1CCN(CCn2nc(-c3ccc(NC(=O)OC(C)(C)C)c4c3OCO4)c3c(N)ncnc32)CC1 [Compound 45] | ≤ 10 | –
CN(C)C1CCN(CCn2nc(-c3ccc(NC(=O)OC4COC4)c4c3OCO4)c3c(N)ncnc32)CC1 [Compound 14] | ≤ 10 | –
COc1cc(-c2nn(CCN3CCC(N(C)C4CC4)CC3)c3ncnc(N)c23)ccc1NC(=O)OC1(C)CCC1 [Compound 68] | ≤ 10 | IC50 (PC3 cells): 15.2 nM
CN(C)C1CCN(CCn2nc(-c3cc(F)c(NC(=O)OC(C)(C)C)c4c3OCO4)c3c(N)ncnc32)CC1 [Compound 17] | 10 to 50 | –

Structure (SMILES) | IC50 (recombinant protein Src) [nM] | other results
CN1CC(OC(=O)Nc2ccc(-c3nn(CCN4CCC(N5CCC5)CC4)c4ncnc(N)c34)c3c2OCO3)C1 [Compound 48] | ≤ 10 | –
CN(C)C1CCN(CCn2nc(-c3cnc(NC(=O)OC(C)(C)C)c4c3OCO4)c3c(N)ncnc32)CC1 [Compound 19] | 10 to 50 | –
COc1cc(-c2nn(CCN3CCC(N(C)C4CC4)CC3)c3ncnc(N)c23)ccc1NC(=O)OC(C)(C)C [Compound 62] | ≤ 10 | IC50 (PC3 cells): 10.1 nM
CN(C)C1CCN(CCn2nc(-c3ccc(NC(=O)OC4C5CC4C5)c4c3OCO4)c3c(N)ncnc32)CC1 (stereo not shown) [Compound 6] | ≤ 10 | –
CN(C)C1CCN(CCn2nc(-c3ccc(NC(=O)OC4CC(F)(F)C4)c4c3OCO4)c3c(N)ncnc32)CC1 [Compound 12] | ≤ 10 | –
CC(C)(C)OC(=O)Nc1ccc(-c2nn(CCN3CCC(N4CCCC4)CC3)c3ncnc(N)c23)c2c1OCO2 [Compound 37] | ≤ 10 | IC50 (PC3 cells): 11.7 nM
CN(C)CCN(C)CCn1nc(-c2ccc(NC(=O)OC(C)(C)C)c3c2OCO3)c2c(N)ncnc21 [Compound 50] | ≤ 10 | –
CN(C)C1CCN(CCn2nc(-c3ccc(NC(=O)OC4(C)CCC4)c4c3OCO4)c3c(N)ncnc32)CC1 [Compound 5] | ≤ 10 | IC50 (PC3 cells): 4.2 nM
CCOC(=O)Nc1ccc(-c2nn(CCN3CCC(N(C)C)CC3)c3ncnc(N)c23)c2c1OCO2 [Compound 9] | 10 to 50 | –
CC(C)OC(=O)Nc1ccc(-c2nn(CCN3CCC(N(C)C)CC3)c3ncnc(N)c23)c2c1OCO2 [Compound 8] | 10 to 50 | –
CN1CCC2(CC1)CCN(CCn1nc(-c3ccc(NC(=O)OC(C)(C)C)c4c3OCO4)c3c(N)ncnc31)CC2 [Compound 49] | ≤ 10 | –
CN(C)C1CCN(CCn2nc(-c3ncc(NC(=O)OC(C)(C)C)c4c3OCO4)c3c(N)ncnc32)CC1 [Compound 20] | 10 to 50 | –
CN(C)[C@H]1CCN(CCn2nc(-c3ccc(NC(=O)OC(C)(C)C)c4c3OCO4)c3c(N)ncnc32)C1 [Compound 38] | ≤ 10 | –
CN(C)C1CCN(CCn2nc(-c3c(F)cc(NC(=O)OC(C)(C)C)c4c3OCO4)c3c(N)ncnc32)CC1 [Compound 18] | 10 to 50 | –
COC1CCN(CCn2nc(-c3ccc(NC(=O)OC(C)(C)C)c4c3OCO4)c3c(N)ncnc32)CC1 [Compound 58] | ≤ 10 | –
COc1cc(-c2nn(CCN3CCC(N(C)C)CC3)c3ncnc(N)c23)ccc1NC(=O)OC1(C)CCC1 [Compound 61] | ≤ 10 | IC50 (PC3 cells): 5.6 nM
COc1cc(-c2nn(CCN3CCC(N(C)C)CC3)c3ncnc(N)c23)ccc1NC(=O)OC(C)(C)C [Compound A, reference compound] | – | AUC(0-t) ([2]; oral administration 10 mg/kg): 1440 ng·h/mL; Cmax ([2]; oral administration 10 mg/kg): 211 ng/mL; bioavailability ([2]; oral administration 10 mg/kg): 42.9%; half-life ([2]; oral administration 10 mg/kg): 5.7 h; AUC(0-t) ([2]; iv, injection 2 mg/kg): 682 ng·h/mL; clearance ([2]; iv, injection 2 mg/kg): 775 mL/min/kg; half-life ([2]; iv, injection 2 mg/kg): 6.4 h; Vd ([2]; iv, injection 2 mg/kg): 15.2 L/kg; Initial purity [3]: 96.18%; Purity after stirring in an aqueous hydrochloric acid solution with a pH of 2 for 0.5 h [3]: Complete degradation
COc1cc(-c2nn(CCN3CCC(N(C)C)CC3)c3ncnc(N)c23)ccc1NC(=O)OC1CCC1 [Compound 60] | ≤ 10 | –
CN(C)[C@@H]1CCN(CCn2nc(-c3ccc(NC(=O)OC(C)(C)C)c4c3OCO4)c3c(N)ncnc32)C1 [Compound 39] | ≤ 10 | –
COc1cc(-c2nn(CCN3CCC(N(C)C)CC3)c3ncnc(N)c23)ccc1NC(=O)OC1CC1 [Compound 63] | ≤ 10 | –
CN(C)CCC1CCN(CCn2nc(-c3ccc(NC(=O)OC(C)(C)C)c4c3OCO4)c3c(N)ncnc32)CC1 [Compound 44] | ≤ 10 | –
COc1cc(-c2nn(CCN3CCC(N(C)C4CC4)CC3)c3ncnc(N)c23)ccc1NC(=O)OC1(C)CC1 [Compound 69] | ≤ 10 | IC50 (PC3 cells): 12.5 nM
